Patent US5714467A, “Antibacterial and antimalarial hybrid peptides” (The Rockefeller University, priority 1993, dated 1998)

What was measured:
Porphyromonas gingivalis = assay: anaerobic microdilution broth assay (NCCLS M11-T2), oral pathogen; type: cell-based
Procedure: (§1) Antimicrobial susceptibility testing was performed using a microdilution broth assay according to the guidelines of the National Committee for Clinical Laboratory Standards (NCCLS) Document M11-T2 (NCCLS, 1989).
(§2) One-half strength Brain Heart Infusion (BHI) (BBL catalog number 11059) supplemented with hemin and menadione is used in the microtiter plates for diluting the peptide stock solution and for diluting the bacterial inoculum.
(§3) Inoculum is prepared by culturing bacteria from an overnight plate in 5 ml of supplemented BHI. The next day the overnight broth culture is read on a BECKMAN® DU-64 spectrophotometer at 630 nm and diluted with supplemented BHI until an absorbance of 0.02 is reached which represents approximately 1×10^6 colony-forming units per milliliter (CFUs/ml). This culture is used to inoculate the microtiter plates. A sample of the inoculating culture is diluted in supplemented BHI through a series of 1:10 dilutions and the 10^-5 and 10^-6 dilutions are plated, incubated 48 hours at 35°-37° C. anaerobically, and counted to verify inoculum size.
(§4) The microtiter plates are incubated anaerobically for 48 hours at 35°-37° C. in a COY® anaerobic chamber Type A. Plates are never stacked more than four high.

T. rubrum ATCC 36262 = assay: microdilution broth assay, dermatophytes; type: cell-based; conditions: 48 hours at 30° C., M3 broth
Procedure: (§5) Antimicrobial susceptibility testing was performed using a microdilution broth assay as with the aerobes.
(§6) Antibiotic medium 3 (M3) (BBL catalog number 10932) was used in the microtiter plates for diluting the peptide stock solution and for diluting the bacterial inoculum.
(§7) The dermatophyte cultures were grown on Potato Dextrose Agar for one week. A one centimeter square of growth is teased from the leading edge of the fungus and placed in 2 ml of sterile water in a screw-capped glass tube with glass beads (2 mm) on the bottom. The tubes were vortexed for 20 seconds each and placed in a shaker incubator (New Brunswick incubator shaker Model G25) at 37° C. for 30 minutes. Tubes were removed from the shaker incubator and allowed to settle for 10 minutes. The supernatant was read on a BECKMAN® DU-64 spectrophotometer at 530 nm for percent transmission and adjusted with M3 broth to a transmission of 65%. This culture was then diluted 1:10 in M3 broth for inoculating the microtiter plates.
(§8) The microtiter plates were incubated for 48 hours at 30° C. in a PRECISION® mechanical convection oven incubator Model 4. Plates are never stacked more than four high.
(§9) Candida albicans, a yeast was used for comparison.

T. mentagrophytes = assay: microdilution broth assay, dermatophytes; type: cell-based; conditions: M3 broth
Procedure: as §5, §6, §7, §8, §9

C. albicans ATCC 14053 = assay: microdilution broth assay, dermatophytes (yeast for comparison); type: cell-based, Candida albicans; conditions: 48 hours at 30° C., M3 broth
Procedure: as §5, §6, §7, §8, §9

S. aureus = assay: microdilution broth assay (NCCLS M7-A1), aerobes; type: cell-based, Staphylococcus aureus; conditions: 14 strains
Procedure: (§10) Antimicrobial susceptibility testing was performed using a microdilution broth assay according to the guidelines of the National Committee for Clinical Laboratory Standards (NCCLS) Document M7-A1 (NCCLS. 1990).
(§11) The peptide powder as an acetate salt was weighted on an analytical balance and transferred to a polypropylene tube. A solution was prepared at a concentration of 1.024 mg/ml by dissolving the powder in autoclaved (121° C., 20 psi, 20 minutes) deionized water. The peptide solution was used immediately, stored for up to ten days at 4° C., or stored long-term at -70° C. in 1 ml aliquots in polypropylene cryovials.
(§12) Mueller-Hinton broth (MHB) (BBL catalog number 11443) was used in the microtiter plates for diluting the peptide stock solution and for diluting the bacterial inoculum. […]
(§13) Inoculum was prepared by taking a sample of bacteria from a 16-20 hours plate culture and inoculating into 5 ml of (MHB) (BBL catalog number 95834) to an absorbance reading of approximately 0.02 at 600 nm (Ab600) on a BECKMAN® DU-64 spectrophotometer. The culture was incubated at 35°-37° C. with shaking (New Brunswick incubator shaker Model G25) and the growth monitored spectrophotometrically until it reached mid-logarithmic phase (Ab600 of approximately 0.06). This absorbance represents approximately 1×10^8 colony-forming units per milliliter (CFUs/ml). […]

Streptococcus pneumoniae = assay: microdilution broth assay (NCCLS M7-A1), aerobes; type: cell-based; conditions: 11 strains
Procedure: as §10, §11
(§14) Mueller-Hinton broth (MHB) (BBL catalog number 11443) was used in the microtiter plates for diluting the peptide stock solution and for diluting the bacterial inoculum. MBH 5 ml prepared tubes (BBL catalog number 95834) were used to culture an overnight plate of bacteria to the logarithmic phase of growth for inoculating the microtiter plates.
(§15) Inoculum was prepared by taking a sample of bacteria from a 16-20 hours plate culture and inoculating into 5 ml of (MHB) (BBL catalog number 95834) to an absorbance reading of approximately 0.02 at 600 nm (Ab600) on a BECKMAN® DU-64 spectrophotometer. The culture was incubated at 35°-37° C. with shaking (New Brunswick incubator shaker Model G25) and the growth monitored spectrophotometrically until it reached mid-logarithmic phase (Ab600 of approximately 0.06). This absorbance represents approximately 1×10^8 colony-forming units per milliliter (CFUs/ml). The culture was then diluted to approximately 1×10^6 CFUs/ml in autoclaved MHB (BBL catalog number 11443) to produce the inoculum. A sample of the inoculating culture was diluted in 3 mM phosphate buffer (pH 7.2) through a series of 1:10 dilutions and the 10^-4 and 10^-5 dilutions were plated, incubated overnight at 35°-37° C., and counted the next day to verify inoculum size.
(§16) Microtiter plates (Corning manufacturer number 2585096) were prepared with the use of the BECKMAN® Biomek 1000 (Beckman Instruments, Somerset, N.J.) automated laboratory workstation in combination with manual techniques. The microtiter plate was filled with diluent broth using the Biomek 1000 instrument. Peptide stock solution was manually added to the top drug well of the microtiter plate using a Rainin Pipetman Model P-200. The peptide was serially diluted in two-fold dilutions using the Biomek 1000 instrument. One hundred microliters of the standardized bacterial inoculum was added to every well of the microtiter plates (except the blanks) using an Eppendorf Repeater Model 4780 pipet equipped with an Eppendorf 5 ml combitip (catalog number 22 26 130-4).
(§17) The final concentrations of peptide solution in the wells ranged from 0.25 ug/ml to 256 ug/ml. The final concentration of bacteria in the wells was 1-5×10^5 CFUs/ml. The final volume in the wells was 200 μl.
(§18) The microtiter plates were incubated overnight (16-20 hours) at 35°-37° C. in a Precision mechanical convection oven incubator Model 30M. Plates were not stacked more than four high.

s. epidermidis = assay: microdilution broth assay (NCCLS M7-A1), aerobes; type: cell-based; conditions: 12 strains
Procedure: as §10, §11, §14, §15, §16, §17, §18

Acinetobacter = assay: microdilution broth assay (NCCLS M7-A1), aerobes; type: cell-based; conditions: 12 strains
Procedure: as §10, §11, §14, §15, §16, §17, §18

Group A Streptococcus = assay: microdilution broth assay (NCCLS M7-A1), aerobes; type: cell-based; conditions: 15 strains
Procedure: as §10, §11, §14, §15, §16, §17, §18

Xanthomonas = assay: microdilution broth assay (NCCLS M7-A1), aerobes; type: cell-based; conditions: 12 strains
Procedure: as §10, §11, §14, §15, §16, §17, §18

p. aeruginosa = assay: microdilution broth assay (NCCLS M7-A1), aerobes; type: cell-based, Pseudomonas aeruginosa; conditions: 13 strains
Procedure: as §10, §11, §12, §13

E. coli ATCC 25922 = assay: anaerobic microdilution broth assay (NCCLS M11-T2), standard organism; type: cell-based, Escherichia coli; conditions: standard in the P. gingivalis test, anaerobic 48 hours
Procedure: as §1, §2, §3, §4
E. coli ATCC 25922 was used as a standard.

Question: How did the “MIC, P. gingivalis strain 9-14K-1” value (Porphyromonas gingivalis; strain 9-14K-1, anaerobic 48 hours) turn out when “Gly-Ile-Gly-Lys-Phe-Leu-Lys-Lys-Ala-Lys-Lys-Gly-Ile-Gly-Ala-Val-Leu-Lys-Val-Leu-Thr-Thr-Gly-Leu” was run?
Answer: Its value is 16 µg/mL.

Question: And the “MIC, P. gingivalis strain 381” value (Porphyromonas gingivalis; strain 381, anaerobic 48 hours)?
Answer: The value was 64 µg/mL.

Question: And the “MIC, P. gingivalis strain 2561” value (Porphyromonas gingivalis; strain 2561, anaerobic 48 hours)?
Answer: Its value is 16 µg/mL.

Question: What about the “MIC, P. gingivalis strain A7A1-28” value (Porphyromonas gingivalis; strain A7A1-28, anaerobic 48 hours) of the same substance?
Answer: Its value is 32 µg/mL.

Question: What about the “MIC, P. gingivalis strain ATCC 33277” value (Porphyromonas gingivalis; strain ATCC 33277, anaerobic 48 hours) of the same substance?
Answer: Its value is 64 to 128 µg/mL.

Question: And the “MIC, P. gingivalis strain ESO-127” value (Porphyromonas gingivalis; strain ESO-127, anaerobic 48 hours)?
Answer: Its value is 4 to 8 µg/mL.

Question: And the “MIC, P. gingivalis strain FAY-19M-1” value (Porphyromonas gingivalis; strain FAY-19M-1, anaerobic 48 hours)?
Answer: The value was 16 µg/mL.

Question: And the “MIC, P. gingivalis strain VAG-1” value (Porphyromonas gingivalis; strain VAG-1, anaerobic 48 hours)?
Answer: Its value is 64 µg/mL.

Question: What about the “MIC, P. gingivalis strain VAG-4” value (Porphyromonas gingivalis; strain VAG-4, anaerobic 48 hours) of the same substance?
Answer: The value was 32 µg/mL.

Question: And the “MIC, P. gingivalis strain W-50” value (Porphyromonas gingivalis; strain W-50, anaerobic 48 hours)?
Answer: Its value is 32 µg/mL.

Question: What about the MIC, T. rubrum ATCC 36262 (T. rubrum ATCC 36262) of the same substance?
Answer: The MIC, T. rubrum ATCC 36262 was 256 µg/mL.

Question: What about the MIC, T. mentagrophytes ATCC 4808 (T. mentagrophytes; strain ATCC 4808, 48 hours at 30° C.) of the same substance?
Answer: The MIC, T. mentagrophytes ATCC 4808 was 16 µg/mL.

Question: What about the MIC, T. mentagrophytes ATCC 18748 (T. mentagrophytes; strain ATCC 18748, 48 hours at 30° C.) of the same substance?
Answer: Its MIC, T. mentagrophytes ATCC 18748 is 16 µg/mL.

Question: What about the MIC, C. albicans ATCC 14053 (C. albicans ATCC 14053) of the same substance?
Answer: The MIC, C. albicans ATCC 14053 was 64 µg/mL.

Question: What about the “MIC RANGE, S. aureus” value (S. aureus) of the same substance?
Answer: The value was 2 to 4 µg/mL.

Question: And the “MIC RANGE, Streptococcus pneumoniae” value (Streptococcus pneumoniae)?
Answer: Its value is 8 to 16 µg/mL.

Question: What about the “MIC RANGE, s. epidermidis” value (s. epidermidis) of the same substance?
Answer: The value was 2 to 4 µg/mL.

Question: What about the “MIC RANGE, Acinetobacter” value (Acinetobacter) of the same substance?
Answer: The value was 2 to 4 µg/mL.

Question: And the “MIC RANGE, Group A Streptococcus” value (Group A Streptococcus)?
Answer: Its value is 2 to 4 µg/mL.

Question: And the “MIC RANGE, Xanthomonas” value (Xanthomonas)?
Answer: Its value is 2 to 8 µg/mL.

Question: And the “MIC RANGE, p. aeruginosa” value (p. aeruginosa)?
Answer: The value was 2 to 32 µg/mL.

Question: And the “MIC, E. coli ATCC 25922” value (E. coli ATCC 25922)?
Answer: Its value is 8 µg/mL.
